The values that follow come from patent publication US20110124657A1, “METHOD FOR SCREENING OF 5HT7 RECEPTOR LIGANDS BASED ON A NEW PHARMACOPHORE MODEL AND A DESCRIPTOR'S PROFILE FILTER” (LABORATORIOS DEL DR. ESTEVE, S.A., priority 2008, published 2011).

Where two headings read alike, the source gives them in different places.

In the experiment the target is T1, Cloned Human Serotonin Receptor, Subtype 7 (h5HT7), expressed in CHO cells (Homo sapiens, UniProt P34969).
T1 construct: purchased PerkinElmer 6120512; host or cells: CHO cells (membranes coated on FlashPlate)
Briefly: Radioligand binding, [125I]LSD, Flashplate. Particulars: for inhibition at 1 µM: read-out: %-Inhib. (10^−6 M). On the procedure: Radioligand binding assays were performed using the Cloned Human Serotonin Receptor, Subtype 7 (h5HT7), expressed in CHO cells, coated on Flashplate (Basic FlashPlate Cat.: SMP200) from PerkinElmer (Cat.: 6120512). The protocol assay was essentially the recommended protocol in the Technical Data Sheet by PerkinEmer Life and Analytical Sciences. The Mass membrane protein/well was typically 12 μg and the Receptor/well was about 9-10 fmoles. The Flashplate were let equilibrate at room temperature for one hour before the addition of the components of the assay mixture. The binding buffer was: 50 mM Tris-HCl, pH 7.4, containing 10 mM MgCl2, 0.5 mM EDTA and 0.5% BSA. The radioligand was [^125I]LSD at a final concentration of 0.82 nM. Nonspecific binding was determined with 50 μM of Clozapine. The assay volume was 25 μl. TopSeal-A were applied onto Flashplate microplates and they were incubated at room temperature for 240 minutes in darkness. The radioactivity were quantified by liquid scintillation spectrophotometry (Wallac 1450 Microbeta Trilux) with a count delay of 4 minutes prior to counting and a counting time of 30 seconds per well. Competition binding data were analyzed by using the LIGAND program (Munson and Rodbard, LIGAND: A versatile, computerized approach for characterization of ligand-binding systems. Anal. Biochem. 107: 220-239, 1980) and assays were performed in triplicate determinations for each point.

Where [1] appears, read: compound at 10^−6 M, radioligand [125I]LSD 0.82 nM.
Setting [2] is: radioligand [125I]LSD 0.82 nM, triplicate determinations, read-out: IC50.

What is called IC50 is the concentration at which inhibition is half-maximal.

T1 sequence (P34969 whole entry): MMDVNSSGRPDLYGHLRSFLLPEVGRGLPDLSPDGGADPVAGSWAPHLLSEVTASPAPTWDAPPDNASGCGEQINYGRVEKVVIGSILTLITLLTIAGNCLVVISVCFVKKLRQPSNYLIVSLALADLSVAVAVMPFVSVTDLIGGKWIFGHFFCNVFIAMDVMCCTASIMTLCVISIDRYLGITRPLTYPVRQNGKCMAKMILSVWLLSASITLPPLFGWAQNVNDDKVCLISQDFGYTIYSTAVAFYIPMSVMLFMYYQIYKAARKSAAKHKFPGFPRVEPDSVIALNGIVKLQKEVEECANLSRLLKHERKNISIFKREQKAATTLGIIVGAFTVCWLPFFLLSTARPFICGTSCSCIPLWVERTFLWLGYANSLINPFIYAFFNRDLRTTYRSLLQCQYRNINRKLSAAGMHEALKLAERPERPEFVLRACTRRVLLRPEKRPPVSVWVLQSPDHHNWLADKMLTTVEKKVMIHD

As for `O=c1[nH]c2ccccc2n1C1=CCN(CCOc2ccccc2)CC1` [1-(1-(2-phenoxyethyl)-1,2,3,6-tetrahydropyridin-4-yl)-1H-benzo[d]imidazol-2(3H)-one], the inhibition at 1 µM under setting [1] was determined as 85.3%. Moreover, the IC50 under setting [2] is 314 nM. With `O=c1[nH]c2ccccc2n1C1CCN(CCOc2ccccc2)CC1` [1-(1-(2-phenoxyethyl)piperidin-4-yl)-1H-benzo[d]imidazol-2(3H)-one], the inhibition at 1 µM under setting [1] was 76.1%. Further, the IC50 under setting [2] is 236 nM. In the case of `O=c1[nH]c2ccccc2n1C1=CCN(CCCOc2ccccc2)CC1` [1-(1-(3-phenoxypropyl)-1,2,3,6-tetrahydropyridin-4-yl)-1H-benzo[d]imidazol-2(3H)-one], the inhibition at 1 µM came out at 67.6%. Under setting [2], the 50% inhibitory concentration (IC50) came out at 1260 nM. In the same order, the values of `CC(C)Oc1ccccc1N1CCN(Cc2ccc(-n3ccnc3)cc2)CC1` [1-(4-(1H-imidazol-1-yl)benzyl)-4-(2-isopropoxyphenyl)piperazine] are 74.3% and 278 nM. On to `CC(C)Oc1ccccc1N1CCN(Cc2ccc(Cl)nc2)CC1` [1-((6-chloropyridin-3-yl)methyl)-4-(2-isopropoxyphenyl)piperazine], for which, under setting [1], the inhibition at 1 µM was 82.5%. For `CN(C)S(=O)(=O)c1ccc2[nH]cc(CCN)c2c1` [3-(2-aminoethyl)-N,N-dimethyl-1H-indole-5-sulfonamide], the inhibition at 1 µM is 84.3%. Under setting [2], the IC50 came to 173 nM. Turning to `COc1ccccc1N1CCN(CCC(O)c2ccccc2)CC1` (stereo not drawn) [3-(4-(2-methoxyphenyl)piperazin-1-yl)-1-phenylpropan-1-ol], the inhibition at 1 µM under setting [1] was 78.5%. In addition, the half-maximal inhibitory concentration (IC50) under setting [2] is 139 nM. Turning to `CCOc1ccccc1N1CCN(Cc2c[nH]c3ccccc23)CC1` [3-((4-(2-ethoxyphenyl)piperazin-1-yl)methyl)-1H-indole], the 50% inhibitory concentration (IC50) was 440 nM and the inhibition at 1 µM came to 70%. Regarding `COc1ccc(C(C)C)cc1CN1CCN(c2cccc3[nH]ccc23)CC1` [4-(4-(5-isopropyl-2-methoxybenzyl)piperazin-1-yl)-1H-indole], the 50% inhibitory concentration (IC50) came out at 28.7 nM and the inhibition at 1 µM came out at 76.6%.

With `COc1ccccc1N1CCN(CCC(=O)Nc2ccc3c(c2)CCC3)CC1` [N-(2,3-dihydro-1H-inden-5-yl)-3-(4-(2-methoxyphenyl)piperazin-1-yl)propanamide], the inhibition at 1 µM under setting [1] worked out at 65.7%. Moreover, under setting [2], the IC50 is 1390 nM. On to `O=C(c1cccs1)C1CN2CCC1CC2` (stereo not drawn) [quinuclidin-3-yl(thiophen-2-yl)methanone], for which the IC50 is 983 nM and the inhibition at 1 µM was 52.1%.
